Assay results taken from patent US20090148883A1, “BIOMARKER FOR ASSESSING RESPONSE TO FMS TREATMENT” (priority 2007, published 2009).
Values joined by “and” are separate entries in the source; they are usually repeats but may differ in a detail not shown here. Identical values can stand only once. Like-named read-outs stand apart in the source and are kept apart here. Marks after values point to notes of the source that are not given here.

Assays:
CSF-1 [1] = test: Plasma CSF-1 biomarker in rats, Example 2 (po bid 5 days); assay type: in vivo, rat; conditions: 5 mg/kg po bid, 5 consecutive days
Description: (§1) Groups of female Sprague Dawley rats (n=5) were orally administered 5 or 15 mg/kg of COMPOUND 2 or 40 mg/kg COMPOUND 1 twice per day for 5 consecutive days to characterize compound tolerability. Additional groups of rats, treated with vehicle or 40 mg/kg COMPOUND 1, were terminated one hour after the a.m. dose on Days 1 and 3 for interim analysis of various parameters. Post-mortem analysis of all treated animals included standard necropsy with liver histology evaluation as well as standard hematology and serology. None of the animals were found dead or were euthanized (moribund) prior to scheduled termination. None of the treatments affected body weight or the organ:body weight ratio of selected organs (i.e., liver, thymus, spleen & uterus). […] Both compounds, at the highest dose tested, decreased the number of macrophages in the uterus (up to ˜60% for COMPOUND 2) on Day 5 however, this parameter was highly variable.
On Day 0, the rats were ear tagged, randomized into the treatment groups (Groups 1 & 4: n=15, Groups 2 & 3: n=5), weighed and treated (po, bid) with either vehicle (20% HPbCD) or the test articles as delineated in Table 2 (Allocation of Treatment Groups).
(§2) On Days 1 & 3, one hour after a.m. dose, five rats from Groups 1 and 4 were euthanized using CO2 asphyxiation and exsanguinated via cardiac puncture. Blood samples (˜500 μL) were transferred to separate ethylenediaminetetraacetic acid (EDTA) microtainers and a complete blood count (CBC) was conducted using the Advia 120 Hematology System (Bayer Diagnostics, Tarrytown, N.Y.). Additional blood samples were transferred to separate microtainers (with or without anticoagulant) and processed for biomarker (i.e., MCSF-1) and serologic (i.e., AST/ALT) analysis. The liver and thymus were weighed and discarded. The spleens were weighed and zap-frozen and the uteri (without ovaries attached) were weighed and fixed in 10% buffered formalin. The macrophage content of the uterus was determined immunohistochemically using a macrophage-specific (ED-1) antibody.
On Day 5, rats were euthanized using carbon dioxide and exsanguinated via cardiac puncture. Blood samples (˜500 μL) were collected and processed as described above for CBC, biomarker analysis and serology. The liver, spleen, thymus and uterus (without ovaries attached) were isolated, weighed and fixed in buffered formalin. The right knee with femur attached was isolated, trimmed and fixed in formalin. The left femur was isolated for determination of bone marrow cell counts. Liver histopathology was also conducted.
Differences between treated and control groups were analyzed statistically by ANOVA with a Dunnett's Multiple Comparison post-test. (p value; *:<0.05, **:<0.01).

[2] = tested on: ED-1 positive macrophages in the uterus; test: Macrophage content of the uterus (ED-1 immunohistochemistry) in rats, Example 2; assay type: in vivo, rat; conditions: Day 5
Description: as §1, §2
On Day 5, rats were euthanized using carbon dioxide and exsanguinated via cardiac puncture. […]
Differences between treated and control groups were analyzed statistically by ANOVA with a Dunnett's Multiple Comparison post-test. […]

[3] = Tolerability in rats, Example 2; assay type: in vivo; conditions: 5 or 15 mg/kg COMPOUND 2 or 40 mg/kg COMPOUND 1, po bid, 5 consecutive days
Description: as §1, with “variable. […]” for “variable.”
On Days 1 & 3, one hour after a.m. dose, five rats from Groups 1 and 4 were euthanized using CO2 asphyxiation and exsanguinated via cardiac puncture. […] The macrophage content of the uterus was determined immunohistochemically using a macrophage-specific (ED-1) antibody. […]

[4] = Plasma compound levels in rats dosed 4 days, Examples 3 and 4; assay type: in vivo, rat; conditions: 2 hrs after final dose, individual animals; for concentration at 2 h: female, Sprague Dawley, rat, plasma, oral
Description: Method: Female Sprague Dawley Rats (150 to 200 g BW) from Charles River were administered vehicle or COMPOUND 3 at 10 and 40 mg/kg p.o. bid for 4 days. On the fifth day, a final dose was given and the animals were sacrificed 2 hrs later. Rats were euthanized using CO2 asphyxiation and exsanguinated via cardiac puncture. An aliquot of blood ([…]) was transferred to an EDTA tube and processed for plasma and for determination of plasma compound and CSF-1 biomarker levels.

CSF-1 [5] = test: Plasma CSF-1 in rats dosed 4 days, Examples 3 and 4 (mouse CSF-1 ELISA); assay type: in vivo, rat; conditions: for CSF-1 levels elevated: vs vehicle; for CSF-1, pg/ml, Mean (SEM) / Plasma CSF-1, pg/ml, Mean: group mean; for CSF-1, pg/ml, Mean (SEM) / CSF-1, pg/ml (plasma): vehicle mean 127; for CSF-1, pg/ml (plasma) / Plasma CSF-1, pg/ml: individual animals; for Plasma CSF-1, pg/ml, Mean / Plasma CSF-1, pg/ml: vehicle mean 124
Description: (§3) Pharmacodynamic activity in rats was determined to identify appropriate doses for efficacy studies. Circulating CSF-1 is cleared by sinusoidal macrophages when bound and internalized by FMS in a process that is partly dependent on FMS kinase activity. CSF-1 levels rise when FMS is inhibited, or when FMS inhibition reduces the number/function of macrophages. Uterine macrophages are short-lived and FMS-dependent. Quantitation of uterine macrophage density and plasma CSF-1 levels thereby provided pharmacodynamic endpoints measurable in rats following 4 days of dosing.
(§4) […] On the fifth day, a final dose was given and the animals were sacrificed 2 hrs later. Rats were euthanized using CO2 asphyxiation and exsanguinated via cardiac puncture. An aliquot of blood ([…]) was transferred to an EDTA tube and processed for plasma and for determination of plasma compound and CSF-1 biomarker levels.

uterine macrophages = test: Uterine ED1 stained area (uterine macrophage density) in rats dosed 4 days, Examples 3 and 4; assay type: in vivo, rat; conditions: for Uterine macrophages depleted: vs vehicle; for Uterine ED1 area/HPF, Mean (SEM) / Uterine ED1 area/HPF, Mean: group mean; for Uterine ED1 area/HPF: individual animals
Description: as §3, §4
Spleens, livers and uteri (without ovaries) were isolated and weighed and uteri were fixed in formalin. Uteri sections were stained for ED1 and ED-1 stained area (arbitrary units) at 200× magnification was determined using Image-Pro Plus software.

[6] = Plasma compound levels in rats dosed 4 days, Examples 3 and 4; assay type: in vivo, rat; conditions: for concentration at 2 h: rat, plasma
[7] = 10 mg/kg p.o. bid 4 days, vehicle mean 9808
[8] = 40 mg/kg p.o. bid 4 days, vehicle mean 9808
[9] = 10 mpk, dosed 4 days, vehicle mean 2057
[10] = 20 mpk, dosed 4 days, vehicle mean 2057
[11] = 50 mpk, dosed 4 days, vehicle mean 2057

Compound: Cc1ncc(-c2c(C3=CCCCC3)c3cc(C#N)ccc3[nH]c2=O)[nH]1 [COMPOUND 2]
- Effect on plasma concentrations of CSF-1 (CSF-1 [1]): failed to significantly affect plasma concentrations of CSF-1
- Effect on macrophage content of the uterus ([2]; highest dose tested (COMPOUND 2 15 mg/kg, COMPOUND 1 40 mg/kg po bid), highly variable): significant effect
- Decrease in number of ED-1 positive macrophages per field in the uterus ([2]; up to, dose dependent (5 and 15 mg/kg po bid)): ~60%
- Effect on appearance, behavior, body weight or organ:body weight ratio (liver, spleen, thymus) [3]: did not have an observable effect

Compound: CONC(=O)c1cn(-c2ccc3c(c2)CCC3)c2nc(Nc3ccc(C4CCN(C)CC4)cc3)ncc2c1=O [COMPOUND 3]
- Compound, ng/ml (plasma) ([4]; 10 mg/kg p.o. bid 4 days): 2080 ng/mL and 2800 ng/mL
- Compound, ng/ml (plasma) ([4]; 40 mg/kg p.o. bid 4 days): 5060 ng/mL and 5730 ng/mL
- concentration at 2 h ([4]; 10 mg/kg, 10 mg/kg p.o. bid 4 days): 2730 ng/mL
- concentration at 2 h ([4]; 40 mg/kg, 40 mg/kg p.o. bid 4 days): 5320 ng/mL
- CSF-1 levels elevated (CSF-1 [5]; 10 mg/kg p.o. bid 4 days): 4.5 fold
- CSF-1, pg/ml, Mean (SEM) (CSF-1 [5]; 10 mg/kg p.o. bid 4 days): 570 pg/mL
- CSF-1, pg/ml (plasma) (CSF-1 [5]; 10 mg/kg p.o. bid 4 days): 651 pg/mL and 482 pg/mL and 577 pg/mL
- CSF-1 levels elevated (CSF-1 [5]; 40 mg/kg p.o. bid 4 days): 5.5 fold
- CSF-1, pg/ml, Mean (SEM) (CSF-1 [5]; 40 mg/kg p.o. bid 4 days): 698 pg/mL
- CSF-1, pg/ml (plasma) (CSF-1 [5]; 40 mg/kg p.o. bid 4 days): 548 pg/mL and 746 pg/mL and 801 pg/mL
- Uterine macrophages depleted (uterine macrophages; 10 mg/kg p.o. bid 4 days): 51%
- Uterine ED1 area/HPF, Mean (SEM) (uterine macrophages; [7]): 4855 arbitrary units
- Uterine ED1 area/HPF (uterine macrophages; [7]): 4919 arbitrary units and 7609 arbitrary units and 2037 arbitrary units
- Morphology of uterine macrophages (ED-1 staining) (uterine macrophages; 40 mg/kg p.o. bid 4 days): did not have the normal reticulated morphology
- Uterine macrophages depleted (uterine macrophages; 40 mg/kg p.o. bid 4 days): 81%
- Uterine ED1 area/HPF, Mean (SEM) (uterine macrophages; [8]): 1836 arbitrary units
- Uterine ED1 area/HPF (uterine macrophages; [8]): 929 arbitrary units and 1721 arbitrary units and 2858 arbitrary units
- concentration at 2 h ([6]; female, Sprague Dawley, oral, 10 mg/kg, 10 mg/kg p.o. bid 4 days, 2 hrs after final dose, group mean, read-out: Compound, ng/ml, Mean (SEM)): 2540 ng/mL
- concentration at 2 h ([6]; female, Sprague Dawley, oral, 40 mg/kg, 40 mg/kg p.o. bid 4 days, 2 hrs after final dose, group mean, read-out: Compound, ng/ml, Mean (SEM)): 5370 ng/mL

Compound: CC1(C)CC=C(c2nc(C3CC(C)(C)OC(C)(C)C3)ccc2NC(=O)c2ncc(C#N)[nH]2)CC1 [COMPOUND 4]
- CSF-1 levels elevated (CSF-1 [5]; 10 mpk, dosed 4 days): 28%
- Plasma CSF-1, pg/ml, Mean (CSF-1 [5]; 10 mpk, dosed 4 days, p < 0.05 vs. Vehicle): 159* pg/ml
- Plasma CSF-1, pg/ml (CSF-1 [5]; 10 mpk, dosed 4 days): 152 pg/mL and 165 pg/mL and 139 pg/mL and 157 pg/mL and 184 pg/mL
- CSF-1 levels elevated (CSF-1 [5]; 20 mpk, dosed 4 days): 79%
- Plasma CSF-1, pg/ml, Mean (CSF-1 [5]; 20 mpk, dosed 4 days, p < 0.005 vs. Vehicle): 211** pg/ml
- Plasma CSF-1, pg/ml (CSF-1 [5]; 20 mpk, dosed 4 days): 211 pg/mL and 163 pg/mL and 196 pg/mL and 238 pg/mL and 249 pg/mL
- CSF-1 levels elevated (CSF-1 [5]; 50 mpk, dosed 4 days): 363%
- Plasma CSF-1, pg/ml, Mean (CSF-1 [5]; 50 mpk, dosed 4 days, p < 0.005 vs. Vehicle): 574** pg/ml
- Plasma CSF-1, pg/ml (CSF-1 [5]; 50 mpk, dosed 4 days): 540 pg/mL and 696 pg/mL and 506 pg/mL and 585 pg/mL and 541 pg/mL
- Dose with a threshold level of activity for CSF-1 elevation and uterine macrophage depletion (CSF-1 [5]; rats dosed 4 days): 10 mg/kg
- Uterine macrophages depleted (uterine macrophages; 10 mpk, dosed 4 days): 27%
- Uterine ED1 area/HPF, Mean (uterine macrophages; [9]): 1501 arbitrary units
- Uterine ED1 area/HPF (uterine macrophages; [9]): 1003 arbitrary units and 1233 arbitrary units and 1174 arbitrary units and 1021 arbitrary units and 3075 arbitrary units
- Uterine macrophages depleted (uterine macrophages; 20 mpk, dosed 4 days): 28%
- Uterine ED1 area/HPF, Mean (uterine macrophages; [10]): 1476 arbitrary units
- Uterine ED1 area/HPF (uterine macrophages; [10]): 1419 arbitrary units and 1995 arbitrary units and 1164 arbitrary units and 1560 arbitrary units and 1244 arbitrary units
- Uterine macrophages depleted (uterine macrophages; 50 mpk, dosed 4 days): 44%
- Uterine ED1 area/HPF, Mean (uterine macrophages; [11]): 1149 arbitrary units
- Uterine ED1 area/HPF (uterine macrophages; [11]): 681 arbitrary units and 1431 arbitrary units and 2955 arbitrary units and 585 arbitrary units and 94 arbitrary units
- Plasma compound, ng/ml, Mean ([6]; 10 mpk, dosed 4 days, 2 hours after last dose, group mean): 1414 (186) ng/ml
- Plasma compound ([6]; 10 mpk, dosed 4 days, 2 hours after last dose, individual animals): 968 ng/mL and 1560 ng/mL and 1790 ng/mL and 1680 ng/mL
- Plasma compound, ng/ml, Mean ([6]; 20 mpk, dosed 4 days, 2 hours after last dose, group mean): 2636 (172) ng/ml
- Plasma compound ([6]; 20 mpk, dosed 4 days, 2 hours after last dose, individual animals): 2670 ng/mL and 2320 ng/mL and 2470 ng/mL and 3210 ng/mL
- Plasma compound, ng/ml, Mean ([6]; 50 mpk, dosed 4 days, 2 hours after last dose, group mean): 6612 (881) ng/ml
- Plasma compound ([6]; 50 mpk, dosed 4 days, 2 hours after last dose, individual animals): 6090 ng/mL and 4800 ng/mL and 9390 ng/mL and 7110 ng/mL
- concentration at 2 h ([6]; 10 mpk, dosed 4 days, 2 hours after last dose, group mean, read-out: Plasma compound, ng/ml, Mean): 1410 ng/mL
- concentration at 2 h ([6]; 10 mpk, dosed 4 days, 2 hours after last dose, individual animals, read-out: Plasma compound): 1070 ng/mL
- concentration at 2 h ([6]; 20 mpk, dosed 4 days, 2 hours after last dose, individual animals, read-out: Plasma compound): 2510 ng/mL
- concentration at 2 h ([6]; 50 mpk, dosed 4 days, 2 hours after last dose, group mean, read-out: Plasma compound, ng/ml, Mean): 6610 ng/mL
- concentration at 2 h ([6]; 50 mpk, dosed 4 days, 2 hours after last dose, individual animals, read-out: Plasma compound): 5670 ng/mL
- concentration at 2 h ([6]; dosed 4 days, 2 hours after last dose, group mean, read-out: Plasma compound, ng/ml, Mean): 2640 ng/mL
